Here are results for nine molecules from DBAASP.

Holding throughout (assay): ≥ marks a high value that may be exact or a test limit, other limits are often not marked, values filed in µg/mL are converted to µM
Assay [1] concerns Pseudomonas aeruginosa ATCC 27853.
For assay [2], the system named is Escherichia coli ATCC 25922.
Assay [3] relates to Xanthomonas axonopodis pv. glycines ISBF 327.
The subject of assay [4] is Pseudomonas aeruginosa CGMCC 1.860.
Assay [5] concerns Pseudomonas aeruginosa 0108.
Assay [6] deals with Staphylococcus epidermidis CICC 23664.
Assay [7] relates to Staphylococcus epidermidis.
Assay [8] has as its system Pseudomonas syringae pv. syringae EPS 94.
Assay [9] relates to Erwinia amylovora PMV 6076.
Assay [10] relates to Xanthomonas campestris pv. Vesicatoria 2133-2.
In assay [11] the test system is Staphylococcus aureus ATCC 25923.
The test system of assay [12] is Staphylococcus epidermidis ATCC 12228.
In assay [13] the test system is Salmonella enterica subsp. enterica serovar Typhi DMST 22842.
Assay [14] has as its system Staphylococcus aureus NCTC 8325-4.
In assay [15] the test system is Cronobacter sakazakii ATCC BAA-894.
Assay [16] has as its system Cronobacter sakazakii DPC 6440.
In assay [17] the test system is Cronobacter muytjensii ATCC 51329.
The subject of assay [18] is Salmonella enterica subsp. enterica serovar Typhimurium LT2.
The test system of assay [19] is Pseudomonas fluorescens NCIMB 9046.
In assay [20] the test system is Staphylococcus aureus RN4220.
The subject of assay [21] is Staphylococcus aureus RF122.
In assay [22] the test system is Cronobacter sakazakii DSM 4485.
Assay [23] relates to Klebsiella pneumoniae NCIMB 13218.
Assay [24] has as its system Staphylococcus aureus SA113.
The subject of assay [25] is Escherichia coli NCIMB 11843.
Assay [26] concerns Staphylococcus aureus Newman.
The subject of assay [27] is Listeria monocytogenes LO28.

Values after ≈ are worked out from the molar mass of the structure shown.

One may read the MIC as the least concentration at which growth counts as inhibited. For `CC[C@H](C)[C@H](NC(=O)[C@H](CCCN=C(N)N)NC(=O)[C@H](CCCCN)NC(=O)[C@H](CC(C)C)NC(=O)[C@H](CO)NC(=O)[C@@H](NC(=O)[C@@H](NC(=O)[C@H](CCCCN)NC(=O)[C@@H](NC(=O)CNC(=O)[C@@H](NC(=O)[C@H](CO)NC(=O)[C@H](CC(C)C)NC(=O)[C@H](Cc1ccccc1)NC(=O)[C@H](CCSC)NC(=O)[C@H](CCCCN)NC(=O)[C@H](CCCCN)NC(=O)[C@@H](NC(=O)[C@H](CCC(N)=O)NC(=O)[C@H](Cc1cnc[nH]1)NC(=O)[C@H](Cc1ccccc1)NC(=O)[C@H](CCCCN)NC(=O)CN)[C@@H](C)CC)C(C)C)C(C)C)C(C)C)[C@@H](C)O)C(=O)N[C@@H](CCC(N)=O)C(=O)N[C@@H](Cc1ccccc1)C(=O)NCC(=O)N[C@@H](CC(=O)O)C(=O)N[C@@H](Cc1ccccc1)C(N)=O` [GKFHQIKKMFLSVGVKVTSLKRIQFGDF], the MIC in [1] is 20 µM (≈ 64.8 µg/mL); in assay [2], 20 µM (≈ 64.8 µg/mL); in assay [3], 10 µM (≈ 32.4 µg/mL).

Regarding `CC[C@H](C)[C@H](N)C(=O)N[C@@H](CCCCN)C(=O)N[C@@H](CCCCN)C(=O)N[C@H](C(=O)N[C@@H](CC(C)C)C(=O)N[C@@H](CO)C(=O)N[C@@H](CCCCN)C(=O)N[C@H](C(=O)N[C@@H](CCCCN)C(=O)N[C@@H](CCCCN)C(=O)N[C@@H](CC(C)C)C(=O)N[C@@H](Cc1c[nH]c2ccccc12)C(=O)N[C@@H](CCCCN)C(N)=O)[C@@H](C)CC)[C@@H](C)CC` [IKKILSKIKKLWK], the MIC in assay [4] amounted to 25 µM (≈ 40.6 µg/mL); in assay [5], 25 µM (≈ 40.6 µg/mL); in assay [6], 12.5 µM (≈ 20.3 µg/mL); in assay [7] it was 12.5 µM (≈ 20.3 µg/mL).

As to `CC[C@H](C)[C@H](N)C(=O)N[C@@H](CCCCN)C(=O)N[C@@H](CCCCN)C(=O)N[C@H](C(=O)N[C@@H](CC(C)C)C(=O)N[C@@H](CO)C(=O)N[C@@H](CCCCN)C(=O)N[C@H](C(=O)N[C@@H](CCCCN)C(=O)N[C@@H](CCCCN)C(=O)N[C@@H](Cc1c[nH]c2ccccc12)C(=O)N[C@@H](CC(C)C)C(=O)N[C@@H](CCCCN)C(N)=O)[C@@H](C)CC)[C@@H](C)CC` [IKKILSKIKKWLK], the MIC in [4] was 12.5 µM (≈ 20.3 µg/mL); in assay [5] it was 25 µM (≈ 40.6 µg/mL); in assay [6], 3.12 µM (≈ 5.07 µg/mL); in assay [7], 12.5 µM (≈ 20.3 µg/mL).

For `CC[C@H](C)[C@H](NC(=O)[C@H](CCCCN)NC(=O)[C@H](CCCCN)NC(=O)[C@H](Cc1ccccc1)NC(=O)[C@H](CC(C)C)NC(=O)[C@H](CCCCN)NC(=O)[C@@H](N)CCCCN)C(=O)N[C@@H](CC(C)C)C(=O)N[C@@H](CCCCN)C(=O)N[C@@H](Cc1ccc(O)cc1)C(=O)N[C@@H](CC(C)C)C(=O)N[C@@H](C)C(=O)NCC(=O)N1CCC[C@H]1C(=O)N[C@@H](C)C(=O)N[C@@H](CCCCN)C(=O)N[C@@H](Cc1ccccc1)C(=O)N[C@@H](CC(C)C)C(=O)N[C@@H](Cc1cnc[nH]1)C(=O)N[C@@H](CO)C(=O)N[C@@H](C)C(=O)N[C@@H](CCCCN)C(=O)N[C@@H](CCCCN)C(=O)N[C@@H](CC(=O)O)C(=O)N[C@@H](CCC(=O)O)C(=O)N[C@@H](CC(C)C)C(=O)O` [KKLFKKILKYLAGPAKFLHSAKKDEL], the MIC in [8] is 8.66 µM (≈ 26.1 µg/mL); in assay [9], 3.54 µM (≈ 10.7 µg/mL); in [10], 6.12 µM (≈ 18.5 µg/mL).

Take `CC(C)[C@H](NC(=O)CNC(=O)[C@@H](N)CC(N)=O)C(=O)N[C@@H](CCC(N)=O)C(=O)N1CCC[C@H]1C(=O)N[C@@H](CCCCN)C(=O)N[C@@H](Cc1ccc(O)cc1)C(=O)N[C@@H](CCCCN)C(=O)N[C@@H](Cc1c[nH]c2ccccc12)C(=O)N[C@@H](Cc1c[nH]c2ccccc12)C(=O)N[C@@H](CCCCN)C(=O)N[C@@H](Cc1c[nH]c2ccccc12)C(=O)N[C@@H](Cc1c[nH]c2ccccc12)C(=O)N[C@@H](CCCCN)C(=O)N[C@@H](CCCCN)C(=O)N[C@@H](Cc1c[nH]c2ccccc12)C(=O)N[C@@H](Cc1c[nH]c2ccccc12)C(=O)N[C@@H](Cc1c[nH]c2ccccc12)C(N)=O` [NGVQPKYKWWKWWKKWWW]: the MIC in assay [11] is above 34.7 µM; in assay [12], 8.78 µM (≈ 23 µg/mL); in assay [2], 4.2 µM (≈ 11 µg/mL); in [13], 8.78 µM (≈ 23 µg/mL).

Take `CC(C)[C@H](NC(=O)CNC(=O)[C@@H](N)CC(N)=O)C(=O)N[C@@H](CCC(N)=O)C(=O)N1CCC[C@H]1C(=O)N[C@@H](CCCCN)C(=O)N[C@@H](Cc1ccc(O)cc1)C(=O)N[C@@H](CCCN=C(N)N)C(=O)N[C@@H](Cc1c[nH]c2ccccc12)C(=O)N[C@@H](Cc1c[nH]c2ccccc12)C(=O)N[C@@H](CCCN=C(N)N)C(=O)N[C@@H](Cc1c[nH]c2ccccc12)C(=O)N[C@@H](Cc1c[nH]c2ccccc12)C(=O)N[C@@H](CCCN=C(N)N)C(=O)N[C@@H](CCCN=C(N)N)C(=O)N[C@@H](Cc1c[nH]c2ccccc12)C(=O)N[C@@H](Cc1c[nH]c2ccccc12)C(=O)N[C@@H](Cc1c[nH]c2ccccc12)C(=O)O` [NGVQPKYRWWRWWRRWWW]: the MIC in assay [11] is above 33.3 µM; in [12], 33.3 µM (≈ 91 µg/mL); in [2], above 33.3 µM; in assay [13] it was at least 33.3 µM.

Consider `CC(C)C[C@H](NC(=O)[C@H](C)NC(=O)[C@H](CCC(=O)O)NC(=O)[C@H](CC(N)=O)NC(=O)[C@H](CC(C)C)NC(=O)[C@@H](N)C(C)C)C(=O)N[C@@H](CC(C)C)C(=O)N[C@@H](CCCN=C(N)N)C(=O)O` [VLNEALLR], for which the MIC is at least 1250 µM in [14]; at least 1250 µM in [15]; at least 625 µM in assay [16]; at least 625 µM in assay [17]; at least 1250 µM in assay [18]; at least 2500 µM in assay [19]. The MIC in assay [1] was 32 µM (≈ 29.7 µg/mL); in assay [20], at least 1250 µM; in assay [21], at least 1250 µM; in [22], at least 1250 µM; in assay [23] it was at least 2500 µM; in assay [24] it was at least 1250 µM. In addition, the MIC in [25] is at least 2500 µM; in assay [26] it was at least 1250 µM.

Regarding `CC(C)C[C@H](NC(=O)[C@H](CC(C)C)NC(=O)[C@H](CC(N)=O)NC(=O)[C@H](CCC(=O)O)NC(=O)[C@H](CC(N)=O)NC(=O)[C@H](CC(C)C)NC(=O)[C@@H](N)C(C)C)C(=O)N[C@@H](C)C(=O)O` [VLNENLLA], the MIC in [14] was at least 1250 µM; in assay [15] it was at least 2500 µM; in [16], at least 2500 µM; in assay [17], at least 2500 µM; in [18], at least 1250 µM; in [19], at least 2500 µM. The MIC is 32 µM (≈ 28.3 µg/mL) in assay [1]; at least 1250 µM in [20]; at least 1250 µM in assay [21]; at least 2500 µM in assay [22]; at least 2500 µM in assay [23]; at least 1250 µM in assay [24]. Moreover, the MIC in assay [25] was at least 2500 µM; in assay [26], at least 1250 µM.

For `CC[C@H](C)[C@H](NC(=O)[C@H](Cc1c[nH]c2ccccc12)NC(=O)[C@@H]1CCCN1C(=O)[C@H](CCCCN)NC(=O)[C@H](CCSC)NC(=O)[C@H](C)NC(=O)[C@H](CCCCN)NC(=O)[C@H](CCC(N)=O)NC(=O)[C@H](Cc1cnc[nH]1)NC(=O)[C@H](CCC(N)=O)NC(=O)[C@H](Cc1ccc(O)cc1)NC(=O)[C@@H](N)C(C)C)C(=O)N[C@@H](CCC(N)=O)C(=O)N1CCC[C@H]1C(=O)N[C@@H](CCCCN)C(=O)N[C@H](C(=O)N[C@@H](CCCCN)C(=O)N[C@H](C(=O)N[C@H](C(=O)N1CCC[C@H]1C(=O)N[C@@H](Cc1ccc(O)cc1)C(=O)N[C@H](C(=O)N[C@@H](CCCN=C(N)N)C(=O)N[C@@H](Cc1ccc(O)cc1)C(=O)N[C@@H](CC(C)C)C(=O)O)C(C)C)[C@@H](C)CC)C(C)C)[C@@H](C)O` [VYQHQKAMKPWIQPKTKVIPYVRYL], the results for the MIC in assay [16] and in [27] were at least 312 µM and at least 78.1 µM, respectively.
